This is an account of results in patent publication US20100331348A1, “TROPANE DERIVATIVES USEFUL AS PESTICIDES” (SYNGENTA CROP PROTECTION, INC., priority 2007, published 2010).

Each structure is given as a SMILES string. Read-outs that look alike come from different tables or passages of the source.

Assay type in all cases: in vivo
Assay [1] relates to Pyricularia oryzae. Briefly: whole plant or invertebrate. To be noted: foliar, 96 h.
The subject of assay [2] is Erysiphe graminis f.sp. tritici. Briefly: Erysiphe graminis f.sp. tritici (wheat powdery mildew) leaf disk assay. Conditions: Blumeria graminis, foliar, 96 h, preventive, four days after inoculation, read-out: control of fungal infection, Erysiphe graminis fsp. tritici.
Assay [3] relates to Puccinia recondita f.sp. tritici. The assay is described as follows: Puccinia recondita f.sp. tritici (wheat brown rust) leaf disk assay. To be noted: foliar, 216 h, preventive, nine days after inoculation, read-out: control of fungal infection, Puccinia recondita f.sp. tritici.
The subject of assay [4] is Aedes aegypti. Briefly: Aedes aegypti (Yellow fever mosquito) larvae test. To be noted: 48 h.
The mark [5] stands for this setting: read-out: control of fungal infection, Pyricularia oryzae (at least 60% list).
The mark [6] stands for this setting: read-out: control of fungal infection, Pyricularia oryzae (at least 80% list).

For the molecule `Cc1csc2c(N3[C@@H]4CC[C@H]3CC(Oc3ccc(C(F)(F)F)cn3)C4)ncnc12` (some centres unmarked) [Example 2.81], in assay [1] (setting [5]), the pest or weed control at 200 ppm is no less than 60%.

As for `FC(F)(F)c1cccc(OC2C[C@H]3CC[C@@H](C2)N3c2ncnc3sccc23)n1` (some centres unmarked) [Example 2.60], the pest or weed control at 200 ppm in assay [1] (setting [5]) was no less than 60%; in assay [2] it was no less than 80%; in assay [3], no less than 80%.

As to `FC(F)(F)c1ccnc(OC2C[C@H]3CC[C@@H](C2)N3c2ccnc3c(Cl)cccc23)c1` (some centres unmarked) [Example 2.195], the pest or weed control at 200 ppm in assay [1] (setting [5]) was no less than 60%.

On to `Cc1nn(C)c2nccc(N3[C@@H]4CC[C@H]3CC(Oc3ccc(Oc5ccc(C(F)(F)F)cn5)cc3)C4)c12` (some centres unmarked) [Example 2.160], for which, in assay [1] (setting [5]), the pest or weed control at 200 ppm is no less than 60%.

In the case of `FC(F)(F)c1ccnc(OC2C[C@H]3CC[C@@H](C2)N3c2ncnc3ccccc23)c1` (some centres unmarked) [Example 2.84], the pest or weed control at 200 ppm in assay [1] (setting [5]) is no less than 60%; in assay [2], no less than 80%; in assay [3], no less than 80%.

In the case of `CCc1ncnc(N2[C@@H]3CC[C@H]2CC(Oc2ccc4c(c2)OCO4)C3)c1Cl` (some centres unmarked) [Example 2.138], in assay [4], the pest or weed control at 2 ppm is no less than 80%.

As for `Fc1ccc(OC2C[C@H]3CC[C@@H](C2)N3c2ncnc3sccc23)cc1F` (some centres unmarked) [Example 2.18], in assay [1] (setting [5]), the pest or weed control at 200 ppm was no less than 60%.

Turning to `CCc1ncnc(N2C3CCC2CC(CC(=O)Nc2ccc(Cl)cc2)C3)c1Cl` (centres unmarked) [Example 7.22], the pest or weed control at 200 ppm in assay [1] (setting [5]) is no less than 60%; in assay [1] (setting [6]) it was no less than 80%; in assay [3], no less than 80%.

For the molecule `CCc1ncnc(N2C3CCC2CC(=NOCc2cc(F)cc(F)c2)C3)c1Cl` [Example 5.57], the pest or weed control at 200 ppm in assay [1] (setting [6]), in assay [2] and in assay [3] was no less than 80% throughout.

For `c1ccc(Oc2cccc(CON=C3CC4CCC(C3)N4c3ncnc4sccc34)c2)cc1` [Example 5.173], the pest or weed control at 200 ppm in assay [1] (setting [5]) was no less than 60%; in assay [1] (setting [6]) it was no less than 80%; in assay [2], no less than 80%; in assay [3] it was no less than 80%.

Consider `Fc1ccc(C(F)(F)F)c(CON=C2CC3CCC(C2)N3c2ncnc3sccc23)c1` [Example 5.234], for which the pest or weed control at 200 ppm in assay [1] (setting [6]), in assay [2] and in assay [3] was no less than 80% in each case.

For the molecule `CCCNC(=O)C=C1CC2CCC(C1)N2c1ncnc2sccc12` [Example 3.31], the pest or weed control at 200 ppm in assay [1] (setting [6]) and in assay [3] was no less than 80% in each case.

Turning to `c1ccc(CNC2C[C@H]3CC[C@@H](C2)N3c2ncnc3sccc23)cc1` (some centres unmarked) [Example 4.10], the pest or weed control at 200 ppm in assay [1] (setting [6]) was no less than 80%.

For the molecule `c1nc(N2[C@@H]3CC[C@H]2CC(Oc2ccc4c(c2)OCO4)C3)c2ccsc2n1` (some centres unmarked) [Example 2.29], the pest or weed control at 200 ppm in assay [2] is no less than 80%. This molecule had a pest or weed control at 2 ppm in assay [4] of no less than 80%.

For the molecule `FC(F)(F)Sc1cccc(CON=C2CC3CCC(C2)N3c2ncnc3sccc23)c1` [Example 5.239], the pest or weed control at 200 ppm in assay [1] (setting [6]), in assay [2] and in assay [3] was no less than 80% each time.

Turning to `CCc1ncnc(N2C3CCC2CC(=CC(=O)Nc2ccc(Cl)cc2)C3)c1Cl` [Example 3.11], the pest or weed control at 200 ppm in assay [1] (setting [5]) was no less than 60%; in assay [3] it was no less than 80%.

With `Cc1nn(C)c2nccc(N3[C@@H]4CC[C@H]3CC(Oc3ccc(Cl)cc3)C4)c12` (some centres unmarked) [Example 1.138], the pest or weed control at 200 ppm in assay [1] (setting [5]) is no less than 60%.

With `CCc1ncnc(C(C)c2ncnc(N3C4CCC3CC(=NOc3ncc(C(F)(F)F)cc3Cl)C4)c2Cl)c1Cl` (centres unmarked) [Example 5.124], the pest or weed control at 200 ppm in assay [1] (setting [5]) was no less than 60%.

On to `Cc1ccc(C)c(CON=C2CC3CCC(C2)N3c2ncnc3sccc23)c1` [Example 5.203], for which the pest or weed control at 200 ppm in assay [1] (setting [5]) is no less than 60%; in assay [2] it was no less than 80%; in assay [3], no less than 80%.

Turning to `Fc1ccc(OC2C[C@H]3CC[C@@H](C2)N3c2ncnc3sccc23)cc1C(F)(F)F` (some centres unmarked) [Example 2.52], the pest or weed control at 200 ppm in assay [1] (setting [5]) is no less than 60%.

In the case of `CCc1ncnc(N2[C@@H]3CC[C@H]2CC(Oc2ccc4sc(=O)oc4c2)C3)c1Cl` (some centres unmarked) [Example 2.177], the pest or weed control at 200 ppm in assay [1] (setting [5]) is no less than 60%.

In the case of `CCc1ncnc(N2C3CCC2CC(=NOCc2cccnc2)C3)c1Cl` [Example 5.25], the pest or weed control at 200 ppm in assay [2] is no less than 80%. In assay [4], the pest or weed control at 2 ppm is no less than 80%.

Regarding `CSc1nccc(N2[C@@H]3CC[C@H]2CC(Oc2cccc(C(F)(F)F)n2)C3)n1` (some centres unmarked) [Example 2.98], the pest or weed control at 200 ppm in assay [1] (setting [5]) was no less than 60%.

`Cc1ccc(OC2C[C@H]3CC[C@@H](C2)N3c2ncnc3sccc23)cc1` (some centres unmarked) [Example 1.7] gave a pest or weed control at 2 ppm in assay [4] of no less than 80%. Further, the pest or weed control at 200 ppm in assay [3] is no less than 80%.

With `Cn1cc(C(=O)N2[C@@H]3CC[C@H]2CC(Oc2cccc(C(F)(F)F)n2)C3)c(C(F)(F)F)c1` (some centres unmarked) [Example 2.221], in assay [1] (setting [5]), the pest or weed control at 200 ppm is no less than 60%.

Consider `Cc1cc(C)cc(CON=C2CC3CCC(C2)N3c2ncnc3sccc23)c1` [Example 5.156], for which the pest or weed control at 200 ppm in assay [1] (setting [5]) is no less than 60%; in assay [2], no less than 80%; in assay [3], no less than 80%.

Turning to `CCc1ncnc(N2C3CCC2CC(=NOCc2noc(-c4ccc(C(F)(F)F)cc4)n2)C3)c1Cl` [Example 5.126], the pest or weed control at 200 ppm in assay [2] and in assay [3] was no less than 80% each time.

As for `c1cc(CON=C2CC3CCC(C2)N3c2ncnc3sccc23)ccn1` [Example 5.131], the pest or weed control at 200 ppm in assay [2] was no less than 80%. The molecule also gave a pest or weed control at 2 ppm in assay [4] of no less than 80%.

Regarding `OC1(Cc2ccccc2)CC2CCC(C1)N2c1ncnc2sccc12` (centres unmarked) [Example 7.14], the pest or weed control at 200 ppm in assay [1] (setting [6]) is no less than 80%.

Consider `CCc1ncnc(N2C3CCC2CC(=NOCc2cccc(Cl)c2)C3)c1Cl` [Example 5.37], for which the pest or weed control at 200 ppm in assay [2] and in assay [3] was no less than 80% throughout.

For `O=c1oc2cc(OC3C[C@H]4CC[C@@H](C3)N4c3ncnc4sccc34)ccc2s1` (some centres unmarked) [Example 2.69], in assay [1] (setting [5]), the pest or weed control at 200 ppm was no less than 60%.

Consider `Fc1ccc(F)c(OC2C[C@H]3CC[C@@H](C2)N3c2ncnc3sccc23)c1` (some centres unmarked) [Example 2.25], for which the values for the pest or weed control at 200 ppm in assay [1] (setting [5]) and in assay [2] were no less than 60% and no less than 80%, respectively.

Consider `Cc1nn(C)c2nccc(N3C4CCC3CC(=NOCc3ccc(Cl)cc3)C4)c12` [Example 5.256], for which the pest or weed control at 200 ppm is no less than 60% in assay [1] (setting [5]), no less than 80% in assay [2] and no less than 80% in assay [3].

In the case of `FC(F)(F)c1cccc(OC2C[C@H]3CC[C@@H](C2)N3c2ccncn2)n1` (some centres unmarked) [Example 2.86], the pest or weed control at 200 ppm in assay [2] and in assay [3] was no less than 80% in each case.

`CCn1nnc(-c2ccc(CON=C3CC4CCC(C3)N4c3ncnc4sccc34)cc2)n1` [Example 5.247]: the pest or weed control at 200 ppm in assay [2] and in assay [3] was no less than 80% throughout.

For the molecule `COc1cc(CON=C2CC3CCC(C2)N3c2ncnc3sccc23)nc(N)n1` [Example 5.172], the pest or weed control at 200 ppm in assay [2] and in assay [3] was no less than 80% in each case.

`CCCCOCON=C1CC2CCC(C1)N2c1ncnc2sccc12` [Example 5.178]: the values for the pest or weed control at 200 ppm in assay [1] (setting [5]), in assay [2] and in assay [3] were no less than 60%, no less than 80% and no less than 80%, respectively.

Take `CC(C)(C)c1csc(CC2CC3CCC(C2)N3c2ncnc3sccc23)n1` (centres unmarked) [Example 7.17]: the values for the pest or weed control at 200 ppm in assay [1] (setting [5]) and in assay [1] (setting [6]) were no less than 60% and no less than 80%, respectively.

For `Cc1nc(ON=C2CC3CCC(C2)N3c2ncnc3sccc23)cc(-c2ccccc2)n1` [Example 5.236], the pest or weed control at 200 ppm in assay [1] (setting [5]) was no less than 60%.

Regarding `CCc1ncnc(N2C3CCC2CC(=NOCc2ccccc2I)C3)c1Cl` [Example 5.46], the pest or weed control at 200 ppm in assay [2] and in assay [3] was no less than 80% in each case.

Regarding `FC(F)(F)Oc1cccc(CON=C2CC3CCC(C2)N3c2ncnc3sccc23)c1` [Example 5.212], the pest or weed control at 200 ppm in assay [1] (setting [5]) is no less than 60%; in assay [2] it was no less than 80%; in assay [3], no less than 80%.

On to `Cn1cc(C(=O)N2[C@@H]3CC[C@H]2CC(Oc2cc(C(F)(F)F)ccn2)C3)c(C(F)(F)F)c1` (some centres unmarked) [Example 2.219], for which the pest or weed control at 200 ppm in assay [1] (setting [5]) is no less than 60%.

For `Clc1cc(Br)ccc1OC1C[C@H]2CC[C@@H](C1)N2c1ncnc2sccc12` (some centres unmarked) [Example 1.28], the pest or weed control at 200 ppm in assay [1] (setting [5]) is no less than 60%.

In the case of `CCCCNC1C[C@H]2CC[C@@H](C1)N2c1ncnc2sccc12` (some centres unmarked) [Example 4.9], the pest or weed control at 200 ppm in assay [1] (setting [6]) is no less than 80%.

Turning to `COc1cc(OCC=C2CC3CCC(C2)N3c2ncnc3sccc23)ccc1Cl` [Example 3.24], the pest or weed control at 200 ppm in assay [1] (setting [6]) and in assay [3] was no less than 80% in each case.

On to `FC(F)(F)Sc1ccc(CON=C2CC3CCC(C2)N3c2ncnc3sccc23)cc1` [Example 5.230], for which the pest or weed control at 200 ppm in assay [2] and in assay [3] was no less than 80% in each case.

`CCc1ncnc(N2C3CCC2CC(=NOCc2c(F)c(F)c(F)c(F)c2F)C3)c1Cl` [Example 5.84]: the pest or weed control at 200 ppm in assay [2] and in assay [3] was no less than 80% each time.

With `FC(F)(F)C(F)(F)c1csc(CC2CC3CCC(C2)N3c2ncnc3sccc23)n1` (centres unmarked) [Example 7.20], the pest or weed control at 200 ppm in assay [1] (setting [5]) was no less than 60%; in assay [3], no less than 80%.

In the case of `O=C(c1ccccc1)c1ccc(OC2C[C@H]3CC[C@@H](C2)N3c2ncnc3sccc23)cc1` (some centres unmarked) [Example 2.39], the pest or weed control at 200 ppm in assay [1] (setting [5]) is no less than 60%.

On to `CCc1ncnc(N2C3CCC2CC(=NOCc2cc(C)ccc2C)C3)c1Cl` [Example 5.47], for which the pest or weed control at 200 ppm in assay [2] and in assay [3] was no less than 80% each time.

Consider `CCc1ncnc(N2[C@@H]3CC[C@H]2CC(Oc2c(F)c(F)c(F)c(F)c2F)C3)c1Cl` (some centres unmarked) [Example 2.150], for which the pest or weed control at 2 ppm in assay [4] is no less than 80%.
